# What was measured:
# β-adrenoreceptor (β1) [1] = biological target: T1, β-adrenoreceptor (β1) (Rattus norvegicus, UniProt P18090); assay: Isolated right atrium, L-isoproterenol-induced heart rate increase (pA2); parameters: species or system Wistar rat; conditions: for β1 Value of pA2 Right Atrium: vs L-isoproterenol, Schild plot
# T1 construct: The right and left atria were then separated; from tissue; host or cells: isolated rat right atrium (spontaneously beating) and left atrium (electrically paced)
# Protocol: The right and left atria were then separated. The spontaneously-beating right atria was clipped on both end by heart shaped clips, where one end was fixed at the bottom of 10 ml of tissue bath made of physiological saline solution, and temperature maintained at 37° C. The other end of the atria was connected to a force transducer, and isometric contractions and beating rate of the right atria were recorded by COULBOURN AT-High-Speed VideoFigure. After the samples were given 250 mg of contractions and reach equilibrium the following experiments were carried out: • (a) β-adrenoceptor blocking action
# Cumulative administration interval was when the previous concentration reached its greatest effect, the next concentration would be immediately given.
# The equation is as follows: pA2=−Log KB Log(DRADJ−1)=nlog[B]−LogKB [formula]
# [B] Test compound concentration in moles • KB: equilibrium dissociation constant • n: value of slope DR: test EC50 divided by control EC50 • CF: EC50 of second or third control groups divided by EC50 of first control group (c) Effect of Compound on the Increase of Spontaneous Beating in Right Atrium Caused by CaCl2
# [2] = Heart rate and blood pressure in living rat; assay type: in vivo, Wistar rats
# Source text: Male Wistar rats, weighing 200˜300 g were abdominal anaesthetized with pentobarbital sodium. Tracheal was cannulated to maintain normal respiration. Polyethylene tube was inserted into the left femoral vein to facilitate drug administration. A 3-way stopcock was used, with one end connected to a syringe for drug injection, while the other end was connected to the syringe filled with physiological saline. The latter was used to prevent residual drugs in the polyethylene tube after injection, which would affect experimental accuracy.
# The right femoral artery was also inserted with polyethylene, and a 3-way stopcock was used too, where one end was connected to heparin solution to prevent embolism. The other end was connected to a Disposable Diaphragm Dome, TA1019, and linked to a transducer. Through an amplifier, a recorder recorded the overall and average arterial pressure; heart rate to evaluate the effect of drug on blood pressure and heart rate.
# lung β 2-receptor = biological target: T2, lung β 2-receptor (Rattus norvegicus, UniProt P10608); assay type: binding, Wistar rat; conditions: 25° C., 60 minutes
# T2 construct: The heart and lung of rat were removed and placed in cold Tris buffer; from tissue; host or cells: membrane preparation from rat lung
# thoracic aorta = assay: Isolated thoracic aorta contraction caused by 75 mM KCl; parameters: species or system Wistar rat
# Protocol: After sacrificing Wistar rat of weight between 300-500 gm, the thoracic aorta was immediately removed and placed in cold Kreb's solution. The fatty connecting tissue surrounding the vessel wall was removed and the thoracic aorta was cut into rings of length 5 mm. The two ends of each ring was pieced and fixed with “Z” shaped platinum wires. […] The sample was given 1 gm of tension and equilibrated for 60 minutes before the following experiments were carried out:
# After thoracic aorta had reached equilibrium in the tissue trough, the normal Kreb's solution in the trough was replaced with 75 mM KCl solution to induce vasoconstriction. When the results had been recorded for at least 35 minutes, the aorta was repeatedly rinsed with normal Kreb's solution. After the aorta had re-equilibrated and at least rested for 60 minutes, different concentrations (10^−8, 10^−7, 10^−6, and 10^−5M) of compound 1 were separately added. 30 minutes later, 75 mM KCl was added again to induce vasoconstriction. This method was used to compare the differences in contraction induced by 75 mM KCl on thoracic aorta pre-treated and non-treated with compound 1.
# 0.1 μM of BayK8644 was first added into the tissue trough. 10 minutes later, 75 mM of concentrated Potassium solution was added to induce thoracic aorta contraction. When vasoconstriction had reached stability, different concentrations of (10^−8, 10^−7, 10^−6, and 10^−5M) compound 1 were separately added. The effects of aorta contraction induced by concentrated Potassium solution were observed.
# isolated atria = assay: Direct effect (intrinsic sympathomimetic activity) on reserpine pretreated isolated atria; parameters: species or system Wistar rat
# Protocol: Wistar rats of weight between 200˜300 gm were used. 18˜24 hours before the experiment, 5 mg/kg of reserpine was injected via abdominal cavity to remove all endogenous catecholamines. Prior experiment, Wistar rats were sacrificed, the heart was immediately removed and placed in Kreb's solution aerated with air mixture and maintained at room temperature. The right and left atria were carefully separated.
# β2-adrenoceptor = biological target: T3, β2-adrenoceptor (Cavia porcellus, UniProt Q8K4Z4); assay: Direct effect (intrinsic sympathomimetic activity) on reserpine pretreated isolated tracheal; parameters: species or system guinea pig
# T3 construct: a portion of tracheal approximately 4 cm long was removed; from tissue; host or cells: isolated trachea of reserpine-pretreated guinea pigs
# Protocol: 18˜24 hours before the experiment, 5 mg/kg of reserpine was injected via abdominal cavity to remove all endogenous catecholamines. Prior experiment, guinea pigs were sacrificed, the tracheal was immediately removed and placed in Kreb's solution aerated with air mixture and maintained at room temperature of 22˜25° C. […] Then the tissue was repeatedly washed with Kreb's solution.
# β-adrenoreceptor (β1) [3] = biological target: T1, β-adrenoreceptor (β1); assay: Isolated left atrium, L-isoproterenol-induced contractility increase (pA2); parameters: species or system Wistar rat; conditions: for β1 Value of pA2 Left Atrium: vs L-isoproterenol, electrically stimulated
# Protocol: The inspontaneously-beating left atrial tissue was obtained from rat's isolated right atrial tissue experiments. […] The contraction rate was 1 Hz and the resting tension 0.5 gm. After 60 minutes of equilibration, the following experiments were performed:
# (a) Completion of cumulative concentration-response curve: similar to experimental method on isolated right atrium;
# (b) Calculation of pA2 value: similar to calculation method on isolated right atrium.
# right atrium = conditions: 10^−7, 10^−6, and 10^−5M; CaCl2 3.0, 6.0, 9.0 mM
# Protocol: The right atrium of the rats was allowed to equilibrate in Kreb's solution for at least 60 minutes. When the spontaneous beating rate had reached a certain stability, CaCl2 of different concentrations (3.0, 6.0, and 9.0 mM) were cumulatively administered, and the changes in the spontaneous beating of right atrium were observed. […] 30 minutes later, different concentrations (3.0, 6.0, and 9.0 mM) were cumulatively administered, and the changes in the spontaneous beating of right atrium were observed again.
# [4] = 1 mg/kg via femoral vein, anaesthetized rat
# [5] = intravenous 0.1-2.0 mg/kg, normotensive rats
# T1 sequence (P18090 whole entry): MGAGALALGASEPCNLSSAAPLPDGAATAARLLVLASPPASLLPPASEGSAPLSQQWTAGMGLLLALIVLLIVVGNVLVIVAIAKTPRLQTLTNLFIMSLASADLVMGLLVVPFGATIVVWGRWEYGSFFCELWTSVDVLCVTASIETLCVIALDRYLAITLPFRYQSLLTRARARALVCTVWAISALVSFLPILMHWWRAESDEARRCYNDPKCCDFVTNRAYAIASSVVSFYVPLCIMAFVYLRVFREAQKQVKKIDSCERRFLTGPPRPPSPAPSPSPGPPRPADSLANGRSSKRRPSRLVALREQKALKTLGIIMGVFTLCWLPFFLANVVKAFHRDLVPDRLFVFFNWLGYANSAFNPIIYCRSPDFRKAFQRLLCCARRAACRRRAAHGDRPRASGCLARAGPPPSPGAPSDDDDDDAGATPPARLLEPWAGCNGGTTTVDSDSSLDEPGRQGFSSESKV
# T3 sequence (Q8K4Z4 whole entry): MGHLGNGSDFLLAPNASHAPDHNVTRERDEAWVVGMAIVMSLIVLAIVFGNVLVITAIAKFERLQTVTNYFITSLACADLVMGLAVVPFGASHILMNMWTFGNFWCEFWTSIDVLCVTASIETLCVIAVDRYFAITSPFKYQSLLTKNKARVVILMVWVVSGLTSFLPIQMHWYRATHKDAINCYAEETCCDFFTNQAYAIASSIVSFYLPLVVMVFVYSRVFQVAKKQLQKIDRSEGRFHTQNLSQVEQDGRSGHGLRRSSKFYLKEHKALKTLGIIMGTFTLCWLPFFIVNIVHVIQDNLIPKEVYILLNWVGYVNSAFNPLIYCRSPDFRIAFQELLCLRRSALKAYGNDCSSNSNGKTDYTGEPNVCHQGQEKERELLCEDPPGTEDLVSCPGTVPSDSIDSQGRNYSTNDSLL
# T2 sequence (P10608 whole entry): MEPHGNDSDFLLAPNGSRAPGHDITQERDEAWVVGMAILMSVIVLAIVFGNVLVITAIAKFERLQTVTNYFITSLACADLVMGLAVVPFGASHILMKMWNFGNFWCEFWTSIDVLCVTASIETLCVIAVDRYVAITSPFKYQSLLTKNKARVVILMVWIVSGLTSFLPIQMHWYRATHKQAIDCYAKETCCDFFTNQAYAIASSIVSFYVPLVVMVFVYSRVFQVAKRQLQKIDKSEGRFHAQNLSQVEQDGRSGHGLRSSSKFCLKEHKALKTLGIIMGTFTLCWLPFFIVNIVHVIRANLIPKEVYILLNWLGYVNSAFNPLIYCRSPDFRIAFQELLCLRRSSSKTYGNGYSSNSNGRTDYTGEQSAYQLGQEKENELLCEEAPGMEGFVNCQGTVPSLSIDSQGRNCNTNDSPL
compound,measurement,setting,value
COC(=O)C1=C(C)NC(C)=C(C(=O)OC)C1c1ccc(OCC(O)CNC(C)(C)C)c(OC)c1 (centres unmarked) [Compound 1],Ratio of β1 and Calcium Antagonism,β-adrenoreceptor (β1) [1],0.12
same,effect on right atrium relative to tracheal (selectivity ratio of β1 type adrenoceptor),β-adrenoreceptor (β1) [1]; from average pA2 difference between right atrium and tracheal,1.32 ×
same,β1/β2,β-adrenoreceptor (β1) [1]; from pA2 difference right atrium vs tracheal,1.32
same,block of heart rate increment effect of L-isoproterenol,"β-adrenoreceptor (β1) [1]; right atrium, 10^−6, 10^−5, and 10^−6 M as printed",could competitively block
same,β1 Right Atrium (Slope),β-adrenoreceptor (β1) [1]; slope of Schild regression,(0.94 ± 0.18)
same,β1 Value of pA2 Right Atrium,β-adrenoreceptor (β1) [1],7.21 ± 0.32
same,β1 Value of pA2 Right Atrium,β-adrenoreceptor (β1) [1]; listed as compound 1,7.21±0.32
same,selectivity on the type of β-adrenoceptor,β-adrenoreceptor (β1) [1]; β1:β2,non-selective
same,Lowering of Blood Pressure,[2]; [4],70 ± 3 mmHg
same,Reduction of Heart Rate,[2]; [4],30 ± 2 beats/min
same,effect on heart rate,[2]; intravenous 0.5 mg/kg,a decrease in heart rate
same,duration of blood pressure lowering effect,[2]; [5],approximately 1 hour
same,effect on blood pressure and heart rate,[2]; [5],continuous dose-dependent blood pressure lowering effect without increasing heart rate
same,[^3H] CGP-12177 (β2) pKi,lung β 2-receptor,6.20 ± 0.55
same,effect on 75 mM KCl contracted thoracic aorta,"thoracic aorta; 10^−8, 10^−7, 10^−6, and 10^−5 M",dose-dependant vasoconstriction
same,Aorta Relaxation,"thoracic aorta; 10^−8M, 75 mM KCl contraction",30 ± 3%
same,effect of 0.1 μM BayK8644 pre-treatment on the aorta effect,"thoracic aorta; BayK8644 0.1 μM 10 minutes, then concentrated Potassium solution",would affect vasoconstriction function
same,direct effect on right atrium beating rate and left atrium isometric contractions,"isolated atria; cumulative administration, reserpine pretreated",could not increase the beating rate and isometric contractions
same,concentration with blocking effect on beating rate and isometric contractions,isolated atria; reserpine pretreated atria,≥ 10^−5 M
same,"tracheal relaxation after pretreatment with ICI118, 551","β2-adrenoceptor; ICI 118, 551 10^−8, 10^−9, 10^−10M for 30 minutes (nifedipine: 10^−8 M)",concentration-dependently shifting parallel to the right
same,direct tracheal relaxation effect,"β2-adrenoceptor; cumulative 10^−10˜3×10^−6 M, reserpine pretreated tracheal",dose-dependant tracheal relaxation effect
same,block of heart contractility increment effect of L-isoproterenol,"β-adrenoreceptor (β1) [3]; left atrium, 10^−6, 10^−5, and 10^−6 M as printed",could competitively block
same,β1 Left Atrium (Slope),β-adrenoreceptor (β1) [3]; slope of Schild regression,(0.85 ± 0.02)
same,β1 Value of pA2 Left Atrium,β-adrenoreceptor (β1) [3],6.91 ± 0.26
same,β1 Value of pA2 Left Atrium,β-adrenoreceptor (β1) [3]; listed as compound 1,6.91±0.26
same,effect on increased atrial beating rate induced by CaCl2,right atrium,blocked
